“Also recorded” adds a separate entry of the source. Ends that are not written are not given here.
Legend:
FATP2 = assay: Expression levels of FATPs and FFARs in adipose tissue by real-time PCR after peptide injection; type: in vivo, mice; conditions: 11 days post single injection in subcutaneous adipose tissue, GAPDH reference, n=4 per group
Protocol: Mice were injected with a single dose of either scramble peptide or PATAD or ADPIF. 11 days post injection, the mice were euthanized and adipose tissue was sampled for RNA extraction followed by real-time PCR.
For this study, mice were on a C57/BL6 genetic background. All animals were housed in a temperature and humidity controlled facility, with a 12 h-light/12 h-dark cycle fed during the whole phase mice will be fed with a 60% high fat diet from Research Diets (D12492), and tap water will be provided ad libitum. Mice were fed and tested regularly for glucose tolerance test for their glucose tolerance and once they were glucose intolerant they were used for treatment.
All peptides were initially dissolved in DMSO and then diluted in sterile saline solution at a concentration of 10 ng/μL. 2.5 μL of each peptide (stapled or scrambled) were mixed and then injected directly in the subcutaneous adipose tissue in each mouse.

[1] = system: lysophosphatidylcholines (LPCs); assay: Lysophosphatidylcholines (LPC) lipid content in pancreas, adipose tissue, liver and plasma; type: in vivo, mice; conditions: 25 μg per mouse subcutaneous
Source text: For the lipid composition in the different tissues and plasma, all samples were flashed frozen at the time of sampling, immediately after sacrifice, and were sent to the lipidomic core facility of Dijon, (Plateforme de Lipidomique-uBorgogne INSERM UMR866/Labex LipSTIC).

[2] = system: Sterol regulatory element binding transcription factor 1 (Srebf1); assay: Hepatic expression of Srebf1 (q-PCR); type: in vivo; conditions: 11 days post injection in the adipose tissue; DIO male mice; vs control
Source text: (§1) AdipoRed Staining of Liver Sections

[3] = STAM model of non-alcoholic steatohepatitis: body weight, viability and general condition; type: in vivo; conditions: STAM NASH mice, any day during the treatment period
Protocol: NASH was induced in 12 male mice by a single subcutaneous injection of 200 μg streptozotocin (STZ, Sigma-Aldrich, USA) solution 2 days after birth and feeding with high fat diet (HFD, 57 kcal % fat, Cat #HFD32, CLEA Japan, Inc., Japan) after 4 weeks of age.
The peptide was administered at a dose of 25 microgram (μg) per mouse once weekly.
Six NASH mice were subcutaneously in the adipose tissue administered vehicle supplemented with ADPIF peptide at a dose of […] per mouse once weekly from 4 to 9 weeks of age.
The viability, clinical signs and behavior were monitored daily. Body weight was recorded before the treatment. […] The animals were sacrificed at 9 weeks of age by exsanguination through direct cardiac puncture under isoflurane anesthesia (Pfizer Inc.).

Collagen IV = assay: Immunostaining of kidney cryosections for Collagen IV; type: in vivo; conditions: DIO(-NASH) mice 3 months post treatment; vs vehicle
Source text: Cryosections of kidneys from DIO vehicle treated and DIO ADPIF treated mice 3 months post treatment, were immunostained for collage IV deposition and tight junction with a ZO-1 antibody to assess the effect of ADPIF peptide on fibrosis progression in other soft tissues. For immunofluorescence experiments, liver and kidneys freshly sampled were included in Optimal Cutting Temperature Compound™ (OCT™, Catalog #4583, Tissue-Tek® OCT™, Sakura® Finetek, Torrance, California, USA) and cryosections of 7 μm were cut with Cryostat Leica CM1950. Cryosections were washed with 1×PBS and fixated in 4% formaldehyde solution for 15 min (Catalog #: F555-4L, Sigma-Aldrich, Saint-Louis, Missouri, USA) and then permeabilized with 0.02% SDS-PBS for 30 seconds. Blocking solution was 5%-Bovine Serum Albumin (BSA) in PBS. Primary antibodies were diluted in blocking solution and incubated overnight and indicated secondary antibodies were diluted in PBS for 30 minutes. Nuclei were counterstained with Hoechst (Catalog #: D1306, Invitrogen, Carlsbad, California, USA). Slides were then mounted with Vectashield® Mounting Medium (Catalog #: H-1000, Vector Laboratories, Burlingame, California, USA). Images were acquired and analyzed with Zeiss Imager.Z2 microscope equipped with either Zeiss AxioVision or Zeiss ZEN 2012 software (Carl Zeiss Inc., Oberkochen, Germany). […]

GLP-1 = assay: Circulating GLP-1 enzyme immunoassay in plasma; type: in vivo; conditions: 11 days post single adipose tissue injection, high fat/high glucose diet male mice
Protocol: Mice were injected with a single dose of either scramble peptide or PATAD or ADPIF. 11 days post injection, the mice were euthanized, and plasma was obtained and used for determination of circulating GLP1 from mice with the indicated treatment.
For LOXL2 and GLP-1 measurements, the two commercially available kits: Lysyl Oxydase Like Protein 2 (LOXL2), Enzyme-linked Immunosorbent Assay Kit, Mus musculus, SEF552Mu, Cloud Clone Corp;
RayBio Human/Mouse/Rat GLP-1 Enzyme Immunoassay Kit, EIA-GLP1, RayBiotech were used with the indicated procedures from the manufacturer.

LOXL2 = assay: Immunostaining of liver cryosections for LOXL2 (DIO-NASH); type: in vivo; conditions: DIO-NASH mice, 3 months after injection in subcutaneous adipose tissue; vs untreated
Protocol: For immunofluorescence experiments, liver and kidneys freshly sampled were included in Optimal Cutting Temperature Compound™ (OCT™, Catalog #4583, Tissue-Tek® OCT™, Sakura® Finetek, Torrance, California, USA) and cryosections of 7 μm were cut with Cryostat Leica CM1950. Cryosections were washed with 1×PBS and fixated in 4% formaldehyde solution for 15 min (Catalog #: F555-4L, Sigma-Aldrich, Saint-Louis, Missouri, USA) and then permeabilized with 0.02% SDS-PBS for 30 seconds. Blocking solution was 5%-Bovine Serum Albumin (BSA) in PBS. Primary antibodies were diluted in blocking solution and incubated overnight and indicated secondary antibodies were diluted in PBS for 30 minutes. Nuclei were counterstained with Hoechst (Catalog #: D1306, Invitrogen, Carlsbad, California, USA). Slides were then mounted with Vectashield® Mounting Medium (Catalog #: H-1000, Vector Laboratories, Burlingame, California, USA). Images were acquired and analyzed with Zeiss Imager.Z2 microscope equipped with either Zeiss AxioVision or Zeiss ZEN 2012 software (Carl Zeiss Inc., Oberkochen, Germany). Anti-Collagen IV antibody, ab6586 from Abcam and LOXL2 antibody, GTX105085 from GeneTex were used.

[4] = system: fatty acid synthase (Fasn); assay: Hepatic expression of de novo lipogenesis gene Fasn (q-PCR); type: in vivo; conditions: 11 days post injection in the adipose tissue; DIO male mice; vs control
Source text: as §1

VECTTREKEVLASLDKAAFLTQLHS (not fully specified (bridges)) [ADPIF, R and S carry the stapling, preferably 2-(7-octenyl)arginine and 2-(4-pentenyl)serine]
FATP2 expression level in the adipose tissue (FATP2): more active than PATAD peptide
level of LPC 18:2 ([1]; adipose tissue and liver): most prominent reduction; also recorded: mostly reduced
levels of lysophosphatidylcholines (LPCs) in the tissues analyzed ([1]; adipose tissue, liver, plasma, euthanized 1 week after last injection): effective in reducing selective LPCS; also recorded: selective decrease of certain LPCs
hepatic expression level of Srebf1 [2]: repressed; also recorded: significantly decreased
mean body weight compared with the Vehicle group [3]: no significant differences
Collagen IV depots in the kidney (immunostaining) (Collagen IV): clear reduction; also recorded: More depots of Collagen IV are observed in the DIO-NASH vehicle than in the ADPIF treated
circulating levels of GLP-1 (GLP-1): restored high circulating levels of GLP1, with ADPIF inducing a greater increase than PATAD; also recorded: more active than PATAD peptide; also recorded: restore GLP1 circulating levels back to lean controls
LOXL2 expression in liver (immunostaining) (LOXL2): effective in preventing the progression of fibrotic markers; also recorded: reduced
hepatic expression level of fatty acid synthase (Fasn) [4]: repressed; also recorded: significantly decreased
